Earlier results in patent US9125900B2 (priority 2005, dated 2015).
Where two headings read alike, the source gives them in different places.

Columns and labels:
5-HT4a receptor isoform = 5-HT4a receptor isoform (Homo sapiens, UniProt Q13639)
respiratory neurons [1] = tested on: respiratory neurons
respiratory neurons [2] = conditions: for morphine-induced suppression of respiratory neuronal activity: anesthetized rats
5-HT7 receptor = 5-HT7 receptor (Homo sapiens, UniProt P34969)
Chain of 5-HT7 receptor (P34969 whole entry): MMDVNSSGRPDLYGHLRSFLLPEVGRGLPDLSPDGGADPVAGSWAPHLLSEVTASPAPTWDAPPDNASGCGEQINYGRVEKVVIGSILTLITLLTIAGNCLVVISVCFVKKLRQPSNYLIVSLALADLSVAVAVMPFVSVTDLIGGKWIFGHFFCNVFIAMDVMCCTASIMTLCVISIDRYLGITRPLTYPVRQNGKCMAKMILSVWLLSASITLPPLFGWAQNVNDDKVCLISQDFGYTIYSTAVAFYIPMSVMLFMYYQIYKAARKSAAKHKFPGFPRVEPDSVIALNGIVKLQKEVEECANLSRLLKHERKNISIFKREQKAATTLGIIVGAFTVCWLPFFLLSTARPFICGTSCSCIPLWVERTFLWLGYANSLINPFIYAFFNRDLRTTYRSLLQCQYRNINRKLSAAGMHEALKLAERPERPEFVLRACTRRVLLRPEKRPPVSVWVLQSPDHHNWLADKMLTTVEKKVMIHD

Chain of 5-HT4a receptor isoform (Q13639 1-387 isoform Q13639-2): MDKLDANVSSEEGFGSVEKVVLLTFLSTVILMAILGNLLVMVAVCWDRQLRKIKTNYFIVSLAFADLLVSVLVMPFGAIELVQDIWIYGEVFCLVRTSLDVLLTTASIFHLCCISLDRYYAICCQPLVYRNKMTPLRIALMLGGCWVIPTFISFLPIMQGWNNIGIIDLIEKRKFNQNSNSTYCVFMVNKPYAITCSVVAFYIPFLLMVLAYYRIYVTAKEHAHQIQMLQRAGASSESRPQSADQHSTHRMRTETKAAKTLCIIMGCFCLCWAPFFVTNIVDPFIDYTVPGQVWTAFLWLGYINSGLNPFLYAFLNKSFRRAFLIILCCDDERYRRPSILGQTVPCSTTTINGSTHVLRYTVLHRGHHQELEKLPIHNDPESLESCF

## COc1cc(N)c(Cl)cc1C(=O)NC1CN2CCC1CC2.Cl (racemic) [zacopride, 4-amino-N-1-azabicyclo[2.2.2] oct-3-yl-5-chloro-2-methoxybenzamide hydrochloride]
5-HT4a receptor isoform
  receptor activity: agonist of the 5-HT4a receptor isoform

## CCCN(CCC)C1CCc2cccc(O)c2C1 (racemic) [8-OH-DPAT, 8-hydroxy-2-(di-n-propylamino)tetralin]
Respiratory neurons [1]; anesthetized cats, higher doses 50 and 90 μg/kg
  phrenic nerve discharges: suppressed phrenic nerve discharges
Respiratory neurons [1]; anesthetized cats, lower doses 10-50 μg/kg
  phrenic nerve discharges: increased the frequency of phrenic nerve discharges
Respiratory neurons [1]; cats
  pentobarbital- and ketamine-induced suppression of respiratory neurons: reverse pentobarbital- and ketamine-induced suppression of respiratory neurons
Respiratory neurons [1]; cats, 20 μg/kg intravenously
  phrenic nerve discharges: phrenic nerve discharges were decreased
Hypoxic goats
  respiratory frequency or ventilation rate: did not increase respiratory frequency or ventilation rate
Respiratory neurons [2]; 100 μg/kg, rats
  depressant effects on respiratory neurons: no depressant effects on rat respiratory neurons
Respiratory neurons [2]
  morphine-induced suppression of respiratory neuronal activity: reversed the morphine-induced suppression of neuronal activity

## O=C1CC2(CCCC2)CC(=O)N1CCCCN1CCN(c2ncccn2)CC1 [buspirone]
Respiratory neurons [2]
  morphine-induced suppression of respiratory neuronal activity: reversed the suppression
5-HT7 receptor
  receptor activity: no effect on the 5-HT7 receptor
